Assay results published in the NIST ThermoML archive (doi:10.1021/acs.jced.7b00578).
Values joined by “and” are separate entries in the source; they are usually repeats but may differ in a detail not shown here. Identical values can stand only once. ± gives the expanded uncertainty stated by the source.

Experiments:
[1] = for vapor or sublimation pressure: Closed cell (Static) method; for Normal melting temperature: DTA
[2] = Molar enthalpy of transition or fusion; details: Crystal; DSC
[3] = molar heat capacity at constant pressure; details: 101.33 kPa, Extra sensitive DSC

O=C1OCCO1 [ethylene carbonate]
Details	molar heat capacity at constant pressure [J/K/mol]	vapor or sublimation pressure
[1], 272.67 K, Crystal	–	0.00025 ± 0.00012 kPa
[1], 272.74 K, Crystal	–	0.00026 ± 0.00012 kPa
[1], 272.8 K, Crystal	–	0.00025 ± 0.00012 kPa
[1], 272.88 K, Crystal	–	0.00025 ± 0.00012 kPa
[1], 278.16 K, Crystal	–	0.00051 ± 0.00012 kPa and 0.00049 ± 0.00012 kPa
[1], 278.17 K, Crystal	–	0.00049 ± 0.00012 kPa
[1], 283.05 K, Crystal	–	0.00087 ± 0.00013 kPa and 0.00088 ± 0.00013 kPa and 0.00086 ± 0.00013 kPa
[1], 288.1 K, Crystal	–	0.00154 ± 0.00014 kPa and 0.00152 ± 0.00014 kPa and 0.00151 ± 0.00014 kPa
[1], 292.98 K, Metastable liquid	–	0.0034 ± 0.00018 kPa and 0.00338 ± 0.00018 kPa
[1], 293 K, Metastable liquid	–	0.00341 ± 0.00018 kPa
[1], 293.01 K, Crystal	–	0.00258 ± 0.00016 kPa and 0.00256 ± 0.00016 kPa
[1], 293.02 K, Crystal	–	0.00254 ± 0.00016 kPa and 0.00256 ± 0.00016 kPa
[1], 297.98 K, Crystal	–	0.00431 ± 0.0002 kPa and 0.0043 ± 0.0002 kPa
[1], 297.99 K, Crystal	–	0.00431 ± 0.0002 kPa
[1], 297.99 K, Metastable liquid	–	0.00518 ± 0.00023 kPa and 0.0052 ± 0.00023 kPa and 0.00521 ± 0.00023 kPa
[1], 298 K, Metastable liquid	–	0.0052 ± 0.00023 kPa
[1], 302.82 K, Crystal	–	0.00702 ± 0.00029 kPa and 0.00697 ± 0.00029 kPa
[1], 302.83 K, Crystal	–	0.00701 ± 0.00029 kPa
[1], 302.92 K, Metastable liquid	–	0.0078 ± 0.00032 kPa and 0.00783 ± 0.00032 kPa
[1], 307.84 K, Crystal	–	0.01131 ± 0.00045 kPa
[1], 307.84 K, Metastable liquid	–	0.01153 ± 0.00046 kPa and 0.01158 ± 0.00046 kPa and 0.01159 ± 0.00046 kPa
[1], 307.85 K, Crystal	–	0.01133 ± 0.00045 kPa and 0.0113 ± 0.00045 kPa
[1], 307.85 K, Metastable liquid	–	0.01159 ± 0.00046 kPa
[1], 312.82 K, Liquid	–	0.01692 ± 0.00057 kPa and 0.01693 ± 0.00057 kPa
[1], 312.83 K, Liquid	–	0.01694 ± 0.00057 kPa
[1], 317.76 K, Liquid	–	0.02435 ± 0.00069 kPa
[1], 317.77 K, Liquid	–	0.02435 ± 0.00069 kPa and 0.02433 ± 0.00069 kPa
[1], 322.65 K, Liquid	–	0.03439 ± 0.00084 kPa and 0.03437 ± 0.00084 kPa
[1], 322.66 K, Liquid	–	0.03443 ± 0.00085 kPa
[1], 327.75 K, Liquid	–	0.04874 ± 0.0011 kPa and 0.04875 ± 0.0011 kPa
[1], 327.76 K, Liquid	–	0.04872 ± 0.0011 kPa
[1], 327.77 K, Liquid	–	0.04878 ± 0.0011 kPa
[1], 332.8 K, Liquid	–	0.06796 ± 0.0014 kPa and 0.06798 ± 0.0014 kPa and 0.06797 ± 0.0014 kPa
[1], 337.66 K, Liquid	–	0.09261 ± 0.0018 kPa
[1], 337.67 K, Liquid	–	0.09259 ± 0.0018 kPa and 0.09267 ± 0.0018 kPa
[1], 337.68 K, Liquid	–	0.09275 ± 0.0019 kPa
[1], 342.68 K, Liquid	–	0.126 ± 0.0024 kPa
[1], 342.69 K, Liquid	–	0.1261 ± 0.0024 kPa and 0.1262 ± 0.0024 kPa
[1], 342.7 K, Liquid	–	0.1262 ± 0.0024 kPa
[1], 347.63 K, Liquid	–	0.1694 ± 0.0027 kPa
[1], 347.65 K, Liquid	–	0.1695 ± 0.0027 kPa
[1], 347.66 K, Liquid	–	0.1696 ± 0.0027 kPa
[1], 352.45 K, Liquid	–	0.2235 ± 0.0034 kPa
[1], 352.46 K, Liquid	–	0.2236 ± 0.0034 kPa
[1], 352.47 K, Liquid	–	0.2238 ± 0.0034 kPa
[1], 352.49 K, Liquid	–	0.2241 ± 0.0034 kPa
[1], 357.49 K, Liquid	–	0.296 ± 0.0042 kPa
[1], 357.5 K, Liquid	–	0.2961 ± 0.0042 kPa and 0.2962 ± 0.0042 kPa and 0.2963 ± 0.0042 kPa
[1], 362.62 K, Liquid	–	0.3906 ± 0.0054 kPa
[1], 362.63 K, Liquid	–	0.3906 ± 0.0054 kPa and 0.3907 ± 0.0054 kPa
[3], 262.19 K, Crystal	101.89 ± 4	–
[3], 264 K, Crystal	102.85 ± 4	–
[3], 266 K, Crystal	104 ± 4	–
[3], 268 K, Crystal	105.06 ± 4.1	–
[3], 270 K, Crystal	106.2 ± 4.1	–
[3], 272 K, Crystal	107.35 ± 4.2	–
[3], 274 K, Crystal	108.49 ± 4.2	–
[3], 276 K, Crystal	109.72 ± 4.2	–
[3], 278 K, Crystal	110.87 ± 4.3	–
[3], 280 K, Crystal	112.1 ± 4.3	–
[3], 282 K, Crystal	113.33 ± 4.4	–
[3], 284 K, Crystal	114.57 ± 4.4	–
[3], 286 K, Crystal	115.8 ± 4.5	–
[3], 288 K, Crystal	117.03 ± 4.5	–
[3], 290 K, Crystal	118.26 ± 4.6	–
[3], 292 K, Crystal	119.59 ± 4.6	–
[3], 294 K, Crystal	120.91 ± 4.7	–
[3], 295.68 K, Crystal	121.96 ± 4.7	–
[3], 316.43 K, Liquid	139.49 ± 5.4	–
[3], 317 K, Liquid	139.58 ± 5.4	–
[3], 318 K, Liquid	139.75 ± 5.4	–
[3], 319 K, Liquid	139.84 ± 5.4	–
[3], 320 K, Liquid	140.02 ± 5.4	–
[3], 321 K, Liquid	140.1 ± 5.4	–
[3], 322 K, Liquid	140.28 ± 5.4	–
[3], 323 K, Liquid	140.37 ± 5.4	–
[3], 323.6 K, Liquid	140.46 ± 5.4	–

Details	Normal melting temperature [°C]
[1], Crystal	35.98 ± 0.7

Details	Molar enthalpy of transition or fusion [kcal/mol]
[2]	3.23 ± 0.167

CC1CCC(=O)O1 (centres undefined) [γ-valerolactone]
Liquid
Details	molar heat capacity at constant pressure [J/K/mol]	vapor or sublimation pressure
[1], 238.07 K	–	0.00014 ± 0.00011 kPa
[1], 238.08 K	–	0.00015 ± 0.00011 kPa
[1], 238.09 K	–	0.00015 ± 0.00011 kPa
[1], 243.06 K	–	0.00026 ± 0.00011 kPa
[1], 243.07 K	–	0.00026 ± 0.00011 kPa
[1], 248.13 K	–	0.00048 ± 0.00012 kPa
[1], 253.14 K	–	0.00082 ± 0.00012 kPa
[1], 258.15 K	–	0.00138 ± 0.00013 kPa
[1], 263.14 K	–	0.00228 ± 0.00015 kPa
[1], 268.14 K	–	0.00369 ± 0.00018 kPa
[1], 273.14 K	–	0.00586 ± 0.00025 kPa
[1], 273.15 K	–	0.00586 ± 0.00025 kPa
[1], 273.63 K	–	0.00612 ± 0.00026 kPa
[1], 273.64 K	–	0.00612 ± 0.00026 kPa
[1], 278.14 K	–	0.00912 ± 0.00037 kPa
[1], 283.14 K	–	0.01396 ± 0.00053 kPa and 0.01395 ± 0.00053 kPa
[1], 288.14 K	–	0.02098 ± 0.00064 kPa and 0.02097 ± 0.00064 kPa
[1], 288.15 K	–	0.021 ± 0.00064 kPa
[1], 293.13 K	–	0.03106 ± 0.0008 kPa
[1], 293.14 K	–	0.03111 ± 0.0008 kPa and 0.03109 ± 0.0008 kPa
[1], 298.14 K	–	0.04532 ± 0.001 kPa and 0.04531 ± 0.001 kPa
[1], 303.13 K	–	0.06501 ± 0.0013 kPa and 0.06502 ± 0.0013 kPa
[1], 308.14 K	–	0.09212 ± 0.0018 kPa and 0.09211 ± 0.0018 kPa
[3], 265.37 K	167.7 ± 6.5	–
[3], 270 K	168.6 ± 6.5	–
[3], 275 K	169.6 ± 6.6	–
[3], 280 K	170.7 ± 6.6	–
[3], 285 K	171.81 ± 6.7	–
[3], 290 K	172.91 ± 6.7	–
[3], 295 K	174.11 ± 6.7	–
[3], 300 K	175.31 ± 6.8	–
[3], 305 K	176.61 ± 6.8	–
[3], 310 K	177.81 ± 6.9	–
[3], 315 K	179.11 ± 6.9	–
[3], 320 K	180.42 ± 7	–
[3], 325 K	181.72 ± 7	–
[3], 330 K	183.02 ± 7.1	–
[3], 335 K	184.22 ± 7.1	–
[3], 340 K	185.52 ± 7.2	–
[3], 345 K	186.72 ± 7.2	–
[3], 350 K	187.93 ± 7.3	–
[3], 355 K	189.13 ± 7.3	–
[3], 358.5 K	189.93 ± 7.4	–

Details	Normal melting temperature [°C]
[1], Crystal	-34.81 ± 0.7

Details	Molar enthalpy of transition or fusion [kcal/mol]
[2]	1.7 ± 0.143
